Results published in publication PMC4893161, “The Dynamic Localization of Cytoplasmic Dynein in Neurons Is Driven by Kinesin-1” (Neuron, 2016).

How the values were obtained:
[1] = target: T1, KLC2 TPR domain (KLC2^TPR) (Mus musculus, UniProt O88448); assay: Fluorescence polarization binding to KLC2 TPR domain; details: 150 mM NaCl, pH 7.5, 20 °C
T1 construct: amino acids V218 to K480) was amplified from a mouse; made in house; host or cells: E. coli (inferred from the pET28a vector
Protocol: (§1) Measurements were performed as previously described ([Pernigo et al., 2013]) with modifications as listed in Supplemental Experimental Procedures. […]
(§2) minutes with the addition of 15 µl of washed pre-equilibrated Protein-G Dynabeads. Beads were washed three times in IP buffer and then boiled in 50 µl 1X SDS-loading buffer. Samples were separated by SDS-PAGE and transferred to immobilon-PVDF membrane (Millipore) for western blotting. Primary antibodies listed above. HRP conjugated secondary antibodies were from Jackson. […]
(§3) Fluorescence polarization measurements […]
(§4) […] All fluorescence polarization (FP) measurements were carried out on a BMG Labtech PolarStar Omega plate reader at 20 °C by incubating 300 nM TAMRA-labeled peptides with His6-tagged KLC2TPR at increasing concentrations in 25 mM Hepes pH 7.5, 150 mM NaCl, 5 mM β-mercaptoethanol. […]
(§5) Four mouse brains were homogenized in 16 ml of ice cold Homogenization buffer (10 mM HEPES pH 7.4, 0.32 M sucrose, 2 mM EDTA plus protease inhibitors) then centrifuged at 1000 g for 15 min at 4 °C to form supernatant ‘S1’ and pellet ‘P1’. […] Samples of S1-P3 were taken at each stage and protein content measured by BCA assay and normalized to 1 mg/ml with 10 µg loaded on gels. […] Protein concentration and turbidity of fractions was analyzed at 280 and 340 nm respectively in a SynergyMx plate reader (BioTek). […]

[2] = test system: KLC1 TPR domain (KLC1^TPR); assay: Fluorescence polarization binding to KLC1 TPR domain; details: 150 mM NaCl, pH 7.5, 20 °C
Protocol: as §1, §2, §3, §4, §5

T1 sequence (O88448 217-478 limits assumed): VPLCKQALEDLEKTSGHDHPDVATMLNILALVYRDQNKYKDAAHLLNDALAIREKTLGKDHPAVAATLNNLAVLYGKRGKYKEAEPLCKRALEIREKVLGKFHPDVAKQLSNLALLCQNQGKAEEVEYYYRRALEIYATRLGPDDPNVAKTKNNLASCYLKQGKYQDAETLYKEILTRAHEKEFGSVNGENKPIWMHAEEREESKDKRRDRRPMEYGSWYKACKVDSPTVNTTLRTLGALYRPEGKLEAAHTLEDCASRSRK

interaction with KLC2 TPR [1]: did not show an interaction | interaction with KLC1 TPR [2]: did not show an interaction
Substance: TAMRA-TRTLQWDTDPS [WD2^pept, peptide centered on the second tryptophan motif of DIC1]
